Experimental data: patent publication US8835409B2, “3-alkenyl-6-halo-4-aminopicolinates and their use as herbicides” (Dow AgroSciences, LLC., priority 2011, dated 2014)

Tests used:
[1] = test system: Polygonum convolvulus (wild buckwheat); assay: Postemergence herbicidal activity, visual % control; format: in vivo; details: Fallopia convolvulus, post-emergence, 336 h, post-emergent, after 14 days, 0 = no injury, 100 = complete kill, read-out: % Control POLCO; for pest or weed control at 280 g/ha: 280 g ai/ha; for pest or weed control at 140 g/ha: 140 g ai/ha
Description: (§1) Seeds or nutlets of the desired test plant species were planted in Sun Gro MetroMix® 306 planting mixture, which typically has a pH of 6.0 to 6.8 and an organic matter content of about 30 percent, in plastic pots with a surface area of 64 square centimeters. When required to ensure good germination and healthy plants, a fungicide treatment and/or other chemical or physical treatment was applied. The plants were grown for 7-21 days in a greenhouse with an approximate 15 hour photoperiod which was maintained at about 23-29° C. during the day and 22-28° C. during the night. Nutrients and water were added on a regular basis and supplemental lighting was provided with overhead metal halide 1000-Watt lamps as necessary. The plants were employed for testing when they reached the first or second true leaf stage.
(§2) A weighed amount, determined by the highest rate to be tested, of each test compound was placed in a 25 mL glass vial and was dissolved in 4 mL of a 97:3 v/v (volume/volume) mixture of acetone and dimethyl sulfoxide (DMSO) to obtain concentrated stock solutions. […] The concentrated stock solutions obtained were diluted with 20 mL of an aqueous mixture containing acetone, water, isopropyl alcohol, DMSO, Atplus 411F crop oil concentrate, and Triton® X-155 surfactant in a 48.5:39:10:1.5:1.0:0.02 v/v ratio to obtain spray solutions containing the highest application rates. Additional application rates were obtained by serial dilution of 12 mL of the high rate solution into a solution containing 2 mL of 97:3 (v/v) mixture of acetone and dimethyl sulfoxide (DMSO) and 10 mL of an aqueous mixture containing acetone, water, isopropyl alcohol, DMSO, Atplus 411F crop oil concentrate, and Triton X-155 surfactant in a 48.5:39:10:1.5:1.0:0.02 (v/v) ratio to obtain ½X, ¼X, ⅛X and 1/16X rates of the high rate. Compound requirements are based upon a 12 mL application volume at a rate of 187 L/ha. Formulated compounds were applied to the plant material with an overhead Mandel track sprayer equipped with a 8002E nozzles calibrated to deliver 187 L/ha over an application area of 0.503 square meters at a spray height of […] above the average plant canopy height. Control plants were sprayed in the same manner with the solvent blank.
(§3) The treated plants and control plants were placed in a greenhouse as described above and watered by sub-irrigation to prevent wash-off of the test compounds. After 14 days, the condition of the test plants as compared with that of the untreated plants was determined visually and scored on a scale of 0 to 100 percent where 0 corresponds to no injury and 100 corresponds to complete kill

[2] = test system: Cirsium arvense (canada thistle); assay: as above; format: in vivo; details: post-emergence, 336 h, post-emergent, after 14 days, 0 = no injury, 100 = complete kill, read-out: % Control CIRAR; for pest or weed control at 280 g/ha: 280 g ai/ha; for pest or weed control at 140 g/ha: 140 g ai/ha
Description: as §1, §2, §3

[3] = test system: Triticum aestivum (spring wheat); assay: as above; format: in vivo; details: post-emergence, 336 h, post-emergent, after 14 days, 0 = no injury, 100 = complete kill, read-out: % Control TRZAS; for plant injury at 280 g/ha: 280 g ai/ha; for plant injury at 140 g/ha: 140 g ai/ha
Description: as §1, §2, §3

[4] = test system: Amaranthus retroflexus (pigweed); assay: as above; format: in vivo; details: post-emergence, 336 h, post-emergent, after 14 days, 0 = no injury, 100 = complete kill, read-out: % Control AMARE; for pest or weed control at 280 g/ha: 280 g ai/ha; for pest or weed control at 140 g/ha: 140 g ai/ha
Description: as §1, §2, §3

[5] = test system: Chenopodium album (lambsquarters); assay: as above; format: in vivo; details: post-emergence, 336 h, post-emergent, after 14 days, 0 = no injury, 100 = complete kill, read-out: % Control CHEAL; for pest or weed control at 280 g/ha: 280 g ai/ha; for pest or weed control at 140 g/ha: 140 g ai/ha
Description: as §1, §2, §3

| melting point | SMILES | pest or weed control at 280 g/ha [1] [%] | pest or weed control at 280 g/ha [2] [%] | plant injury at 280 g/ha [3] [%] | pest or weed control at 280 g/ha [4] [%] | pest or weed control at 280 g/ha [5] [%] | pest or weed control at 140 g/ha [2] [%] | plant injury at 140 g/ha [3] [%] | pest or weed control at 140 g/ha [4] [%] | pest or weed control at 140 g/ha [5] [%] | pest or weed control at 140 g/ha [1] [%] |
| --- | --- | --- | --- | --- | --- | --- | --- | --- | --- | --- | --- |
| 96 to 97 °C | C=Cc1c(C(=O)OC)nc(Cl)c(Cl)c1N [Compound 1, methyl 4-amino-5,6-dichloro-3-vinylpicolinate] | 100 | 95 | 0 | 100 | 100 |  |  |  |  |  |
| 99 to 100 °C | C=Cc1c(C(=O)OC)nc(Cl)c(F)c1N [Compound 2, methyl 4-amino-6-chloro-5-fluoro-3-vinylpyridine-2-carboxylate] |  |  |  |  |  | 70 | 55 | 100 | 90 |  |
| 53 to 54 °C | C=Cc1c(N)cc(Cl)nc1C(=O)OC [Compound 3, methyl 4-amino-6-chloro-3-vinylpicolinate] | 100 | 100 | 20 | 100 | 100 |  |  |  |  |  |
|  | C/C=C\c1c(C(=O)OC)nc(Cl)c(F)c1N [Compound 4, (Z)-methyl 4-amino-6-chloro-5-fluoro-3-(prop-1-en-1-yl)picolinate] |  |  |  |  |  | 85 | 0 | 100 | 100 | 40 |
| 107 to 109 °C | C/C=C/c1c(C(=O)OC)nc(Cl)c(F)c1N [Compound 5, (E)-methyl 4-amino-6-chloro-5-fluoro-3-(prop-1-en-1-yl)picolinate] |  |  |  |  |  | 65 | 0 | 0 | 90 | 20 |
| 98 to 100 °C | C=C(F)c1c(C(=O)OC)nc(Cl)c(F)c1N [Compound 6, methyl 4-amino-6-chloro-5-fluoro-3-(1-fluorovinyl)picolinate] |  |  |  |  |  | 75 | 0 | 20 | 90 | 90 |
| 128 to 130 °C | COC(=O)c1nc(Cl)c(F)c(N)c1/C=C/Cl [Compound 8, (E)-methyl 4-amino-6-chloro-3-(2-chlorovinyl)-5-fluoropicolinate] |  |  |  |  |  | 70 | 0 | 90 | 90 | 60 |
| 164 to 166 °C | C=Cc1c(C(=O)O)nc(Cl)c(F)c1N [Compound 9, 4-amino-6-chloro-5-fluoro-3-vinylpicolinic acid] |  |  |  |  |  | 100 | 50 | 100 | 100 |  |
| 190 to 193 °C (dec.) | C=Cc1c(C(=O)O)nc(Cl)c(Cl)c1N [Compound 10, 4-amino-5,6-dichloro-3-vinylpicolinic acid] |  | 100 | 20 | 100 | 100 |  |  |  |  |  |
| 146 to 148 °C | C=Cc1c(N)cc(Cl)nc1C(=O)O [Compound 11, 4-amino-6-chloro-3-vinylpicolinic acid] |  | 10 | 50 |  | 100 |  |  |  |  |  |
| 141 to 143 °C | C/C=C\c1c(C(=O)O)nc(Cl)c(F)c1N [Compound 12, (Z)-4-amino-6-chloro-5-fluoro-3-(prop-1-en-l-yl)picolinic acid] |  |  |  |  |  | 80 | 10 | 100 | 100 | 85 |
| 153 to 155 °C | C/C=C/c1c(C(=O)O)nc(Cl)c(F)c1N [Compound 13, (E)-4-amino-6-chloro-5-fluoro-3-(prop-1-en-l-yl)picolinic acid] |  |  |  |  |  | 70 | 30 | 60 | 85 | 60 |
|  | C=C(F)c1c(C(=O)O)nc(Cl)c(F)c1N [Compound 14, 4-amino-6-chloro-5-fluoro-3-(1-fluorovinyl)picolinic acid] |  |  |  |  |  | 100 | 0 | 50 | 90 | 90 |
| 152 to 157 °C | Nc1c(F)c(Cl)nc(C(=O)O)c1/C=C/Cl [Compound 16, (E)-4-amino-6-chloro-3-(2-chlorovinyl)-5-fluoropicolinic acid] |  |  |  |  |  | 75 | 80 | 90 | 100 | 10 |

| SMILES | melting point | pest or weed control at 280 g/ha [1] [%] | pest or weed control at 280 g/ha [2] [%] | plant injury at 280 g/ha [3] [%] | pest or weed control at 280 g/ha [4] [%] | pest or weed control at 280 g/ha [5] [%] | pest or weed control at 140 g/ha [2] [%] | plant injury at 140 g/ha [3] [%] | pest or weed control at 140 g/ha [4] [%] | pest or weed control at 140 g/ha [5] [%] | pest or weed control at 140 g/ha [1] [%] |
| --- | --- | --- | --- | --- | --- | --- | --- | --- | --- | --- | --- |
| COC(=O)c1nc(Cl)c(F)c(N)c1/C=C/[Si](C)(C)C [Compound 7, (E)-methyl 4-amino-6-chloro-5-fluoro-3-(2-(trimethylsilyl)vinyl)picolinate] | 103 to 105 °C |  |  |  |  |  | 55 | 0 | 90 | 100 | 50 |
| C[Si](C)(C)/C=C/c1c(C(=O)O)nc(Cl)c(F)c1N [Compound 15, (E)-4-amino-6-chloro-5-fluoro-3-(2-(trimethylsilyl)vinyl)picolinic acid] | 100 to 105 °C |  |  |  |  |  | 65 | 0 |  | 80 |  |
